Laboratory results as given in patent US11980596B2 (priority 2017, dated 2024).

System: subjects with MDD at imminent risk for suicide
[1] = esketamine 84 mg, double-blind phase, N = 35
[2] = esketamine 84 mg, follow up phase, N = 27

Method: The study consisted of a screening evaluation performed within 24 hours (or up to 48 hours upon consultation with the Sponsor's medical monitor) prior to Day 1 dose, immediately followed by a 25-day double-blind treatment phase (Day 1 to 25) with twice a week dosing, and a 56-day follow up phase (Day 26 to Day 81). The study was designed as a POC study and therefore a two-sided 0.20 significance level was used.
Among 68 randomized subjects, 66 were included in the safety analysis set (defined as receiving at least one dose of study medication in the double-blind phase). […] All safety subjects (N=66) were included in the intent-to-treat (ITT) analysis set (defined as receiving at least one dose of study medication during the double-blind phase and having both the baseline and the Day 1, 4-hour postdose evaluation for the MADRS total score). Forty-nine subjects were included in the safety (FU) analysis set (defined as all subjects who have at least 1 visit during the follow up phase).

Structure (SMILES): CN[C@]1(c2ccccc2Cl)CCCCC1=O [esketamine, (S)-2-(2-chlorophenyl)-2-(methylamino)cyclohexanone]
- TEAE leading to study discontinuation: Dysgeusia [1]: 1 (2.9%) subjects (%)
- TEAE leading to study discontinuation: Dyspnea [1]: 1 (2.9%) subjects (%)
- TEAE leading to study discontinuation: Gastrointestinal disorders [1]: 1 (2.9%) subjects (%)
- TEAE leading to study discontinuation: Nausea [1]: 1 (2.9%) subjects (%)
- TEAE leading to study discontinuation: Nervous system disorders [1]: 2 (5.7%) subjects (%)
- TEAE leading to study discontinuation: Panic attack [1]: 0 subjects (%)
- TEAE leading to study discontinuation: Psychiatric disorders [1]: 2 (5.7%) subjects (%)
- TEAE leading to study discontinuation: Respiratory, thoracic and mediastinal disorders [1]: 1 (2.9%) subjects (%)
- TEAE leading to study discontinuation: Ventricular extrasystoles [1]: 1 (2.9%) subjects (%)
- Total no. subjects with TEAE [1]: 33
- Total no. subjects with TEAE leading to study discontinuation [1]: 5 (14.3%) subjects (%)
- Total no. subjects with a serious TEAE [1]: 4 (11.4%) subjects (%)
- Total subjects with TEAE, % of subjects [1]: (94.3%)
- Possibly related TEAE (esketamine 84 mg, double-blind phase, N = 35, possible, probable, very likely): 29 (82.9%) subjects (%)
- AE Abdominal pain, % of subjects [2]: (3.7%)
- AE Abdominal pain, no. subjects [2]: 1
- AE Abdominal tenderness, % of subjects [2]: (3.7%)
- AE Abdominal tenderness, no. subjects [2]: 1
- AE Aphthous ulcer, no. subjects [2]: 0
- AE Back pain, % of subjects [2]: (3.7%)
- AE Back pain, no. subjects [2]: 1
- AE Bronchitis, no. subjects [2]: 0
- AE Cellulitis, no. subjects [2]: 0
- AE Cogwheel rigidity, % of subjects [2]: (3.7%)
- AE Cogwheel rigidity, no. subjects [2]: 1
- AE Contusion, % of subjects [2]: (3.7%)
- AE Contusion, no. subjects [2]: 1
- AE Depressed mood, no. subjects [2]: 0
- AE Depression, % of subjects [2]: (3.7%)
- AE Depression, no. subjects [2]: 1
- AE Diarrhea, % of subjects [2]: (3.7%)
- AE Diarrhea, no. subjects [2]: 1
- AE Dizziness, % of subjects [2]: (3.7%)
- AE Dizziness, no. subjects [2]: 1
- AE Drug hypersensitivity, no. subjects [2]: 0
- AE Dry mouth, % of subjects [2]: (7.4%)
- AE Dry mouth, no. subjects [2]: 2
- AE Dysgeusia, % of subjects [2]: (3.7%)
- AE Dysgeusia, no. subjects [2]: 1
- AE Ear and labyrinth disorders, no. subjects [2]: 0
- AE Ear infection, % of subjects [2]: (3.7%)
- AE Ear infection, no. subjects [2]: 1
- AE Epistaxis, % of subjects [2]: (3.7%)
- AE Epistaxis, no. subjects [2]: 1
- AE Flank pain, % of subjects [2]: (3.7%)
- AE Flank pain, no. subjects [2]: 1
- AE Folliculitis, no. subjects [2]: 0
- AE Gastrointestinal disorders, % of subjects [2]: (22.2%)
- AE Gastrointestinal disorders, no. subjects [2]: 6
- AE Headache, % of subjects [2]: (7.4%)
- AE Headache, no. subjects [2]: 2
- AE Immune system disorders, no. subjects [2]: 0
- AE Infections and infestations, % of subjects [2]: (11.1%)
- AE Infections and infestations, no. subjects [2]: 3
- AE Influenza, no. subjects [2]: 0
- AE Injury, poisoning and procedural complications, % of subjects [2]: (7.4%)
- AE Injury, poisoning and procedural complications, no. subjects [2]: 2
- AE Insomnia, % of subjects [2]: (11.1%)
- AE Insomnia, no. subjects [2]: 3
- AE Intentional self-injury, % of subjects [2]: (3.7%)
- AE Intentional self-injury, no. subjects [2]: 1
- AE Loss of consciousness, % of subjects [2]: (3.7%)
- AE Loss of consciousness, no. subjects [2]: 1
- AE Meniere's disease, no. subjects [2]: 0
- AE Metabolism and nutrition disorders, no. subjects [2]: 0
- AE Migraine, % of subjects [2]: (3.7%)
- AE Migraine, no. subjects [2]: 1
- AE Musculoskeletal and connective tissue disorders, % of subjects [2]: (7.4%)
- AE Musculoskeletal and connective tissue disorders, no. subjects [2]: 2
- AE Musculoskeletal chest pain, % of subjects [2]: (3.7%)
- AE Musculoskeletal chest pain, no. subjects [2]: 1
- AE Musculoskeletal pain, % of subjects [2]: (3.7%)
- AE Musculoskeletal pain, no. subjects [2]: 1
- AE Nasal congestion, % of subjects [2]: (3.7%)
- AE Nasal congestion, no. subjects [2]: 1
- AE Nasopharyngitis, % of subjects [2]: (3.7%)
- AE Nasopharyngitis, no. subjects [2]: 1
- AE Nausea, no. subjects [2]: 0
- AE Neck pain, % of subjects [2]: (3.7%)
- AE Neck pain, no. subjects [2]: 1
- AE Nervous system disorders, % of subjects [2]: (22.2%)
- AE Nervous system disorders, no. subjects [2]: 6
- AE Night sweats, % of subjects [2]: (3.7%)
- AE Night sweats, no. subjects [2]: 1
- AE Panic reaction, no. subjects [2]: 0
- AE Pelvic pain, % of subjects [2]: (3.7%)
- AE Pelvic pain, no. subjects [2]: 1
- AE Pharyngitis, % of subjects [2]: (7.4%)
- AE Pharyngitis, no. subjects [2]: 2
- AE Polydipsia, no. subjects [2]: 0
- AE Procedural pain, no. subjects [2]: 0
- AE Psychiatric disorders, % of subjects [2]: (18.5%)
- AE Psychiatric disorders, no. subjects [2]: 5
- AE Rash, no. subjects [2]: 0
- AE Renal and urinary disorders, no. subjects [2]: 0
- AE Renal failure, no. subjects [2]: 0
- AE Reproductive system and breast disorders, % of subjects [2]: (3.7%)
- AE Reproductive system and breast disorders, no. subjects [2]: 1
- AE Respiratory, thoracic and mediastinal disorders, % of subjects [2]: (7.4%)
- AE Respiratory, thoracic and mediastinal disorders, no. subjects [2]: 2
- AE Restlessness, % of subjects [2]: (3.7%)
- AE Restlessness, no. subjects [2]: 1
- AE Road traffic accident, % of subjects [2]: (3.7%)
- AE Road traffic accident, no. subjects [2]: 1
- AE Sedation, % of subjects [2]: (3.7%)
- AE Sedation, no. subjects [2]: 1
- AE Self-injurious ideation, no. subjects [2]: 0
- AE Sexual dysfunction, no. subjects [2]: 0
- AE Skin and subcutaneous tissue disorders, % of subjects [2]: (3.7%)
- AE Skin and subcutaneous tissue disorders, no. subjects [2]: 1
- AE Somnolence, no. subjects [2]: 0
- AE Suicidal ideation, % of subjects [2]: (3.7%)
- AE Suicidal ideation, no. subjects [2]: 1
- AE Suicide attempt, no. subjects [2]: 0
- AE Tooth impacted, no. subjects [2]: 0
- AE Toothache, no. subjects [2]: 0
- AE Tremor, % of subjects [2]: (7.4%)
- AE Tremor, no. subjects [2]: 2
- AE Upper respiratory tract infection, % of subjects [2]: (3.7%)
- AE Upper respiratory tract infection, no. subjects [2]: 1
- AE Viral upper respiratory tract infection, no. subjects [2]: 0
- AE Vomiting, % of subjects [2]: (3.7%)
- AE Vomiting, no. subjects [2]: 1
- AE Vulvovaginal mycotic infection, % of subjects [2]: (3.7%)
- AE Vulvovaginal mycotic infection, no. subjects [2]: 1
- Serious adverse event: Cellulitis [2]: 0 subjects (%)
- Serious adverse event: Infections and infestations [2]: 0 subjects (%)
- Serious adverse event: Psychiatric disorders [2]: 1 (3.7%) subjects (%)
- Serious adverse event: Suicidal ideation [2]: 1 (3.7%) subjects (%)
- Serious adverse event: Suicide attempt [2]: 0 subjects (%)
- Total no. subjects with a serious adverse event [2]: 1 (3.7%) subjects (%)
- Total no. subjects with adverse events [2]: 13
- Total subjects with adverse events, % of subjects [2]: (48.1%)
- Suicide attempts (non-fatal) (follow up period): none
